Test results from PubChem BioAssay (NCI).
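GI50 marks 50% less growth. TGI denotes the concentration required for complete inhibition of growth.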

Tests used:
Assay in all cases: NCI anticancer screen, dose series, 384-well format
MCF7 breast = tested on: MCF7 breast
MALME-3M melanoma = tested on: MALME-3M melanoma
ACHN renal = tested on: ACHN renal
MDA-MB-468 breast = tested on: MDA-MB-468 breast
HOP-62 NSCLC = tested on: HOP-62 NSCLC
SK-MEL-2 melanoma = tested on: SK-MEL-2 melanoma
OVCAR-4 ovarian = tested on: OVCAR-4 ovarian
UO-31 renal = tested on: UO-31 renal
NCI-H23 lung = tested on: NCI-H23 lung
A549 NSCLC = tested on: A549 NSCLC
HCC-2998 colon = tested on: HCC-2998 colon
U251 glioblastoma = tested on: U251 glioblastoma
PC-3 prostate = tested on: PC-3 prostate
CAKI-1 renal = tested on: CAKI-1 renal
786-0 renal = tested on: 786-0 renal
M14 melanoma = tested on: M14 melanoma
COLO 205 colon = tested on: COLO 205 colon
MOLT-4 leukemia = tested on: MOLT-4 leukemia
HCT-15 colon = tested on: HCT-15 colon
HL-60(TB) leukemia = tested on: HL-60(TB) leukemia
SK-OV-3 ovarian = tested on: SK-OV-3 ovarian
SNB-19 CNS = tested on: SNB-19 CNS
IGROV1 ovarian = tested on: IGROV1 ovarian
T-47D breast = tested on: T-47D breast
OVCAR-5 ovarian = tested on: OVCAR-5 ovarian
TK-10 renal = tested on: TK-10 renal
SN12C renal = tested on: SN12C renal
SK-MEL-28 melanoma = tested on: SK-MEL-28 melanoma
UACC-62 melanoma = tested on: UACC-62 melanoma
DU-145 prostate = tested on: DU-145 prostate
NCI-H460 NSCLC = tested on: NCI-H460 NSCLC
SF-539 CNS = tested on: SF-539 CNS
NCI-H322M lung = tested on: NCI-H322M lung
UACC-257 melanoma = tested on: UACC-257 melanoma
KM12 colon = tested on: KM12 colon
RPMI-8226 leukemia = tested on: RPMI-8226 leukemia
NCI-H226 lung = tested on: NCI-H226 lung
NCI/ADR-RES ovarian = tested on: NCI/ADR-RES ovarian
OVCAR-8 ovarian = tested on: OVCAR-8 ovarian
OVCAR-3 ovarian = tested on: OVCAR-3 ovarian
SF-295 CNS = tested on: SF-295 CNS
K-562 leukemia = tested on: K-562 leukemia
SW-620 colon = tested on: SW-620 colon
LOX IMVI melanoma = tested on: LOX IMVI melanoma
BT-549 breast = tested on: BT-549 breast
A498 renal = tested on: A498 renal
HOP-92 NSCLC = tested on: HOP-92 NSCLC
HT29 colon = tested on: HT29 colon
NCI-H522 lung = tested on: NCI-H522 lung
RXF 393 renal = tested on: RXF 393 renal
SK-MEL-5 melanoma = tested on: SK-MEL-5 melanoma
CCRF-CEM leukemia = tested on: CCRF-CEM leukemia
MDA-MB-231 breast = tested on: MDA-MB-231 breast
HCT-116 colon = tested on: HCT-116 colon
SR leukemia = tested on: SR leukemia
MDA-MB-435 melanoma = tested on: MDA-MB-435 melanoma

SMILES: C=CCN1CC(=O)N2[C@@H](Cc3ccc(O)cc3F)C(=O)N(Cc3cccc(N4CC(N5CCN(CC)CC5)C4)n3)C[C@@H]2N1C(=O)NCc1ccccc1
- GI50 (MCF7 breast): 472 nM
- TGI (MCF7 breast): 46400 nM
- GI50 (MALME-3M melanoma): 23 nM
- TGI (MALME-3M melanoma): 63.1 nM
- GI50 (ACHN renal): 231 nM
- TGI (ACHN renal): 1990 nM
- GI50 (MDA-MB-468 breast): 28.5 nM
- TGI (MDA-MB-468 breast): 87.3 nM
- GI50 (HOP-62 NSCLC): 32.3 nM
- TGI (HOP-62 NSCLC): 190 nM
- GI50 (SK-MEL-2 melanoma): 20.6 nM
- TGI (SK-MEL-2 melanoma): 83.1 nM
- GI50 (OVCAR-4 ovarian): 23.2 nM
- TGI (OVCAR-4 ovarian): 74.1 nM
- GI50 (UO-31 renal): 408 nM
- TGI (UO-31 renal): 3690 nM
- GI50 (NCI-H23 lung): 24 nM
- TGI (NCI-H23 lung): 91.2 nM
- GI50 (A549 NSCLC): 31.5 nM
- TGI (A549 NSCLC): 3130 nM
- GI50 (HCC-2998 colon): 41.3 nM
- TGI (HCC-2998 colon): 398 nM
- GI50 (U251 glioblastoma): 23.6 nM
- TGI (U251 glioblastoma): 88.8 nM
- GI50 (PC-3 prostate): 27.8 nM
- TGI (PC-3 prostate): 91.1 nM
- GI50 (CAKI-1 renal): 30 nM
- TGI (CAKI-1 renal): 105 nM
- GI50 ([…]-0 renal): 35.9 nM
- TGI (786-0 renal): 680 nM
- GI50 (M14 melanoma): 32.1 nM
- TGI (M14 melanoma): 196 nM
- GI50 (COLO 205 colon): 19.8 nM
- TGI (COLO 205 colon): 80.3 nM
- GI50 (MOLT-4 leukemia): 10.4 nM
- TGI (MOLT-4 leukemia): 22.6 nM
- GI50 (HCT-15 colon): 315 nM
- TGI (HCT-15 colon): 3760 nM
- GI50 (HL-60(TB) leukemia): 57.8 nM
- TGI (HL-60(TB) leukemia): 293 nM
- GI50 (SK-OV-3 ovarian): 25.5 nM
- TGI (SK-OV-3 ovarian): 68.7 nM
- GI50 (SNB-19 CNS): 25 nM
- TGI (SNB-19 CNS): 226 nM
- GI50 (IGROV1 ovarian): 23.1 nM
- TGI (IGROV1 ovarian): 59.9 nM
- GI50 (T-47D breast): 27.2 nM
- TGI (T-47D breast): 193 nM
- GI50 (OVCAR-5 ovarian): 20.4 nM
- TGI (OVCAR-5 ovarian): 66.1 nM
- GI50 (TK-10 renal): 52.6 nM
- TGI (TK-10 renal): 637 nM
- GI50 (SN12C renal): 47.4 nM
- TGI (SN12C renal): 18600 nM
- GI50 (SK-MEL-28 melanoma): 25.9 nM
- TGI (SK-MEL-28 melanoma): 77 nM
- GI50 (UACC-62 melanoma): 21.4 nM
- TGI (UACC-62 melanoma): 67.5 nM
- GI50 (DU-145 prostate): 59.4 nM
- TGI (DU-145 prostate): 23000 nM
- GI50 (NCI-H460 NSCLC): 21.7 nM
- TGI (NCI-H460 NSCLC): 90.4 nM
- GI50 (SF-539 CNS): 21.5 nM
- TGI (SF-539 CNS): 71.9 nM
- GI50 (NCI-H322M lung): 54.6 nM
- TGI (NCI-H322M lung): 2210 nM
- GI50 (UACC-257 melanoma): 50.2 nM
- TGI (UACC-257 melanoma): 333 nM
- GI50 (KM12 colon): 36.8 nM
- TGI (KM12 colon): 32300 nM
- GI50 (RPMI-8226 leukemia): 17.8 nM
- TGI (RPMI-8226 leukemia): 33.9 nM
- GI50 (NCI-H226 lung): 28.4 nM
- TGI (NCI-H226 lung): 372 nM
- GI50 (NCI/ADR-RES ovarian): 3130 nM
- TGI (NCI/ADR-RES ovarian): 23600 nM
- GI50 (OVCAR-8 ovarian): 23.8 nM
- TGI (OVCAR-8 ovarian): 282 nM
- GI50 (OVCAR-3 ovarian): 24.4 nM
- TGI (OVCAR-3 ovarian): 84.6 nM
- GI50 (SF-295 CNS): 79.8 nM
- TGI (SF-295 CNS): 528 nM
- GI50 (K-562 leukemia): 35.9 nM
- TGI (K-562 leukemia): 18100 nM
- GI50 (SW-620 colon): 84.7 nM
- TGI (SW-620 colon): > 100000 nM
- GI50 (LOX IMVI melanoma): 33.7 nM
- TGI (LOX IMVI melanoma): 98.7 nM
- GI50 (BT-549 breast): 27.6 nM
- TGI (BT-549 breast): 98.4 nM
- GI50 (A498 renal): 35.4 nM
- TGI (A498 renal): 232 nM
- GI50 (HOP-92 NSCLC): 13.9 nM
- TGI (HOP-92 NSCLC): 46.4 nM
- GI50 (HT29 colon): 52.1 nM
- TGI (HT29 colon): 12900 nM
- GI50 (NCI-H522 lung): 16.2 nM
- TGI (NCI-H522 lung): 82.7 nM
- GI50 (RXF 393 renal): 62.5 nM
- TGI (RXF 393 renal): 593 nM
- GI50 (SK-MEL-5 melanoma): 24.3 nM
- TGI (SK-MEL-5 melanoma): 70.6 nM
- GI50 (CCRF-CEM leukemia): 29.8 nM
- TGI (CCRF-CEM leukemia): 231 nM
- GI50 (MDA-MB-231 breast): 10.8 nM
- TGI (MDA-MB-231 breast): 34.9 nM
- GI50 (HCT-116 colon): 23.9 nM
- TGI (HCT-116 colon): 296 nM
- GI50 (SR leukemia): 26.2 nM
- TGI (SR leukemia): 58.4 nM
- GI50 (MDA-MB-435 melanoma): 60.8 nM
- TGI (MDA-MB-435 melanoma): 32400 nM
